Source: PMC6832352, “Synthesis and Glycosidase Inhibition of Broussonetine M and Its Analogues” (Molecules, 2019)

How the values were obtained:
Assay type in all cases: biochemical
α-L-Fucosidase = target: T1, α-L-Fucosidase (Bos taurus, UniProt Q2KIM0); assay: glycosidase inhibition assay, bovine kidney α-L-fucosidase
T1 construct: purchased Sigma-Aldrich Chemical Co; host or cells: bovine kidney
T1 sequence (Q2KIM0 23-468): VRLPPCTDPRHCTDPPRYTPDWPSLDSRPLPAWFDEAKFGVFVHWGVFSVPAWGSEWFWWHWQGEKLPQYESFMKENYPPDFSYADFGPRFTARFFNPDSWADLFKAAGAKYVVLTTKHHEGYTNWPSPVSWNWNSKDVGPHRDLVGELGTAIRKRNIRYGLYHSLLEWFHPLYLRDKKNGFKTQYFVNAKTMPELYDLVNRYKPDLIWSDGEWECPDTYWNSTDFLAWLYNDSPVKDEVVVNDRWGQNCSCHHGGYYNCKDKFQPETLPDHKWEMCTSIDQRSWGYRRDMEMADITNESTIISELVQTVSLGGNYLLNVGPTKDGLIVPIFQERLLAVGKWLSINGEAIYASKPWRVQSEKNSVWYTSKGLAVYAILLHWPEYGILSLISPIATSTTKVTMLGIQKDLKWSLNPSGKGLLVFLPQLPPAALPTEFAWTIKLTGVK
Experimental: (§1) With rat intestinal maltase as an exception, other enzymes were purchased from Sigma-Aldrich Chemical Co. (St. Louis, Mo. USA). Brush border membranes prepared from rat small intestine according to the method of Kessler et al. were assayed at pH 6.8 for rat intestinal maltase using maltose. The released D-glucose was determined colorimetrically using the Glucose CII-test Wako (Wako Pure Chemical Ind.; Osaka, Japan). Other glycosidase activities were determined using an appropriate p-nitrophenyl glycoside as substrate in a buffer solution at the optimal pH value of each enzyme. The reaction was stopped by adding 400 mM Na2CO3. The released p-nitrophenol was measured spectrometrically at 400 nm.

β-Glucuronidase [1] = target: T2, β-Glucuronidase (Escherichia coli, UniProt P05804); assay: glycosidase inhibition assay, E. coli β-glucuronidase
T2 construct: purchased Sigma-Aldrich Chemical Co
Experimental: as §1

β-Galactosidase = assay: glycosidase inhibition assay, bovine liver β-galactosidase
Experimental: as §1

β-Mannosidase = assay: glycosidase inhibition assay, snail β-mannosidase; conditions: for inhibition %: at 100 μM
Experimental: as §1

β-Glucuronidase [2] = target: T3, β-Glucuronidase (Bos taurus, UniProt A3KMY8); assay: glycosidase inhibition assay, bovine liver β-glucuronidase; conditions: for IC50: β-Glucuronidase, Bovine liver
T3 construct: purchased Sigma-Aldrich Chemical Co; host or cells: bovine liver
T3 sequence (A3KMY8 1-652): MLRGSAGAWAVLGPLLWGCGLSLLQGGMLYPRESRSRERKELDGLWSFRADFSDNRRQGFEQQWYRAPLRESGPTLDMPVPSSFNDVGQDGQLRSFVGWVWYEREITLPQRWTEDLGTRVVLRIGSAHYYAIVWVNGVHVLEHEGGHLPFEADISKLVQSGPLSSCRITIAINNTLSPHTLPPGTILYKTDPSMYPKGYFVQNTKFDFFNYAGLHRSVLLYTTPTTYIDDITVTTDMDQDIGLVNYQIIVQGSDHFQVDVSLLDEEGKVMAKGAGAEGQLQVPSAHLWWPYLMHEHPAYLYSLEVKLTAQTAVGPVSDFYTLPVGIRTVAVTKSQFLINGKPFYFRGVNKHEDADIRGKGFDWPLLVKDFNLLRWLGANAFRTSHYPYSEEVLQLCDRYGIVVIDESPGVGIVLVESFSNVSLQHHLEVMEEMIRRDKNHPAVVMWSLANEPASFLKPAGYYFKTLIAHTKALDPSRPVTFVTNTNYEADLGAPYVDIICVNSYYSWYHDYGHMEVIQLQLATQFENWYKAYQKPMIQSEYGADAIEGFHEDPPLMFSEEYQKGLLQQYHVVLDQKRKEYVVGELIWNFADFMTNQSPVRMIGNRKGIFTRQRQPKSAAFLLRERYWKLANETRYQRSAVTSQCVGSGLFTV
Experimental: as §1

β-Glucosidase = assay: glycosidase inhibition assay, almond β-glucosidase; conditions: for inhibition %: at 100 μM
Experimental: as §1

Amyloglucosidase = target: T4, Amyloglucosidase (Aspergillus niger, UniProt P69328); assay: glycosidase inhibition assay, A. niger amyloglucosidase
T4 construct: purchased Sigma-Aldrich Chemical Co
Experimental: as §1

Rat intestinal maltase = assay: rat intestinal maltase inhibition (brush border membranes, maltose); conditions: for inhibition %: at 100 μM
Experimental: as §1

α,α-Trehalase = target: T5, α,α-Trehalase (Sus scrofa, UniProt I3LIR5); assay: glycosidase inhibition assay, porcine kidney α,α-trehalase
T5 sequence (I3LIR5 24-556): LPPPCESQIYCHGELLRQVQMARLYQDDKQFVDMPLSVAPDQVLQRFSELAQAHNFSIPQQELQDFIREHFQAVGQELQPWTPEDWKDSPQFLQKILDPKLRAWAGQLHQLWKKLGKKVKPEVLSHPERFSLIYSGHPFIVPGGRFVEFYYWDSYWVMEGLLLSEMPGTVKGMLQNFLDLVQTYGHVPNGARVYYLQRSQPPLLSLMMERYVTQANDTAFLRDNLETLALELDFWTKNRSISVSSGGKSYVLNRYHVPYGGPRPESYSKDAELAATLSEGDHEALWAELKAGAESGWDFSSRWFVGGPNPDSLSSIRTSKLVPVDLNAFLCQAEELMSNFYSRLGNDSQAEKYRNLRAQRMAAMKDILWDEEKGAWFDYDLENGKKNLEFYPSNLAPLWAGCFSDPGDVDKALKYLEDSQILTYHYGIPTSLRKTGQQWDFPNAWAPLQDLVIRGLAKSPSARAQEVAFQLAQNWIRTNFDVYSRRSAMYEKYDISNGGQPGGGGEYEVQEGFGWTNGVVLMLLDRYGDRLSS
Experimental: as §1

α-Glucosidase = target: T6, α-Glucosidase (Saccharomyces cerevisiae, UniProt P53341); assay: glycosidase inhibition assay, yeast α-glucosidase; conditions: for IC50: α-Glucosidase, Yeast
T6 construct: purchased Sigma-Aldrich Chemical Co
Experimental: as §1

T2 sequence (P05804 whole entry): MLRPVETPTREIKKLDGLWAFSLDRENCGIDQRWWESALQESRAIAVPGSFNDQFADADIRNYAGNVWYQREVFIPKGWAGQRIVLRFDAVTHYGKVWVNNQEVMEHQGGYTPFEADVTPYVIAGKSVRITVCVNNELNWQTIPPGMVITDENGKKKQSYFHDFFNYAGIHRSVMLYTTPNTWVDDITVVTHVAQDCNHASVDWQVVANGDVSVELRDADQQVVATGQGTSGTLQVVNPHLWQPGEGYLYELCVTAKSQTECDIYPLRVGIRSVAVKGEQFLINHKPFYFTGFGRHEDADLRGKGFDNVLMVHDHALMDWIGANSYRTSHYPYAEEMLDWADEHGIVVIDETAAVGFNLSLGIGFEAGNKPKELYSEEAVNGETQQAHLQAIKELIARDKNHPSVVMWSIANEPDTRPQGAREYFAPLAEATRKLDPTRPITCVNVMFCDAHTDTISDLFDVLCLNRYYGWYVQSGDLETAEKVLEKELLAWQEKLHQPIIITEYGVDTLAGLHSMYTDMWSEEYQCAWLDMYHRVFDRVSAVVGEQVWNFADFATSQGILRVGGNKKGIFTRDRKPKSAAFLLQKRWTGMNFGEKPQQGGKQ
T6 sequence (P53341 whole entry): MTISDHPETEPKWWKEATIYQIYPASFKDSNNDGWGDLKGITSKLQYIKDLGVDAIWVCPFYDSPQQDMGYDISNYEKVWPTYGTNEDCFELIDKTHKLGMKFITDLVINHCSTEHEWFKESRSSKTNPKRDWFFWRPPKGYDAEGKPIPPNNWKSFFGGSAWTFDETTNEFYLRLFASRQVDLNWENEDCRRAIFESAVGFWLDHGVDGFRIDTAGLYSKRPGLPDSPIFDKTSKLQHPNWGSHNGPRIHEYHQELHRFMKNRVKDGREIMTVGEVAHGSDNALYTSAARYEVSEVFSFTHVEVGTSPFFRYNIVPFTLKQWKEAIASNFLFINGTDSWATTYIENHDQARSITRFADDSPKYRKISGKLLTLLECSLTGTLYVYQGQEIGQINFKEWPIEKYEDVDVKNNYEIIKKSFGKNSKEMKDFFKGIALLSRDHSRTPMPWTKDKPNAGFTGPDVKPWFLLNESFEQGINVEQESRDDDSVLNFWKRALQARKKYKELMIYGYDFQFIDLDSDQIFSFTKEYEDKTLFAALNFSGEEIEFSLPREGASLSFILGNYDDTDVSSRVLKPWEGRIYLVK
T4 sequence (P69328 25-640): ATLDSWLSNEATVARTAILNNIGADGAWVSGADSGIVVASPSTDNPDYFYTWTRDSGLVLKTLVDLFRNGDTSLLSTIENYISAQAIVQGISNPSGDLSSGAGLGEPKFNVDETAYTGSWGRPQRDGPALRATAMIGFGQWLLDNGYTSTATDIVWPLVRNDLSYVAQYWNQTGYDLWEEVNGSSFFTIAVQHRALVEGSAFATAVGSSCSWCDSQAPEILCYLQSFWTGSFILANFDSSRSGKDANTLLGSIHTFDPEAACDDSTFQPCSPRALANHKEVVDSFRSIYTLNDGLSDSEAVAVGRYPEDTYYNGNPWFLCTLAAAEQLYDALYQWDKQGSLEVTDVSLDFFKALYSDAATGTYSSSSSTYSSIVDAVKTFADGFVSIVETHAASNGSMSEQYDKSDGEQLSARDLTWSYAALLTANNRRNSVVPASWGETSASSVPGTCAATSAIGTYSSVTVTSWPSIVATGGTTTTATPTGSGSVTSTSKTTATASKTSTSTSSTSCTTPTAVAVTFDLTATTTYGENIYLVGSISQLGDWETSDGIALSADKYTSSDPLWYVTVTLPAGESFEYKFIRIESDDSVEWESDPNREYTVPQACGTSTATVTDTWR

Compound	IC50 (α-L-Fucosidase) [µM]	inhibition at 100 µM (α-L-Fucosidase) [%]	IC50 (β-Glucuronidase [1]) [µM]	IC50 (β-Galactosidase) [µM]	IC50 (β-Mannosidase) [µM]	inhibition % (β-Mannosidase) [%]	inhibition at 100 µM (β-Glucuronidase [2]) [%]	IC50 (β-Glucuronidase [2]) [µM]	IC50 (β-Glucosidase) [µM]	inhibition % (β-Glucosidase) [%]	IC50 (Amyloglucosidase) [µM]	inhibition at 100 µM (Amyloglucosidase) [%]	IC50 (Rat intestinal maltase) [µM]	inhibition at 100 µM (α,α-Trehalase) [%]	inhibition at 100 µM (α-Glucosidase) [%]	IC50 (α-Glucosidase) [µM]	inhibition % (Rat intestinal maltase) [%]	inhibition at 100 µM (β-Glucuronidase [1]) [%]
OCCCC(O)CCCCCCCCCC1NC(CO)C(O)C1O [2,10-di-epi-3, (2S,3R,4R,5R)-2-hydroxymethyl-3,4-dihydroxyl-5-((10S)-10,13-(dihydroxyl)dec-1-yl) pyrrolidine]	> 100	10.8	80	13	> 100	0	1.7	> 100	> 100	10.9	> 100	6.8	1.4	0	3.2	> 100	–	–
OCCC[C@@H](O)CCCCCCCCC[C@H]1N[C@@H](CO)[C@@H](O)[C@@H]1O [2-epi-3, (2S,3R,4R,5R)-2-hydroxymethyl-3,4-dihydroxyl-5-((10R)-10,13-(dihydroxyl)dec-1-yl) pyrrolidine]	> 100	4.3	73	7.4	> 100	0	5.2	> 100	> 100	8.6	> 100	3.8	> 100	0	1.6	> 100	16.8	–
OCCC[C@H](O)CCCCCCCCC[C@H]1N[C@H](CO)[C@@H](O)[C@@H]1O [10’-epi-3, (2R,3R,4R,5R)-2-hydroxymethyl-3,4-dihydroxyl-5-((10S)-10,13-(dihydroxyl)dec-1-yl) pyrrolidine]	> 100	0	20	0.2	> 100	0	17.2	> 100	> 100	29.1	> 100	36.5	> 100	0	4.6	> 100	26.4	–
OCCC[C@@H](O)CCCCCCCCC[C@H]1N[C@H](CO)[C@@H](O)[C@@H]1O [compound 3, (2R,3R,4R,5R)-2-hydroxymethyl-3,4-dihydroxyl-5-((10R)-10,13-(dihydroxyl)dec-1-yl)pyrrolidine]	> 100	0	86	2.3	> 100	1.7	18.4	> 100	> 100	10.0	> 100	3.8	> 100	0	2.6	> 100	0	–
OCCC[C@@H](O)CCCCCCCCC[C@@H]1N[C@@H](CO)[C@@H](O)[C@H]1O [ent-3,10-di-epi-3]	98	–	42	31	> 100	2.3	14.9	> 100	> 100	7.3	> 100	0	84	3.8	6.6	> 100	–	–
OCCC[C@H](O)CCCCCCCCC[C@@H]1N[C@@H](CO)[C@H](O)[C@H]1O [ent-3, (2S,3S,4S,5S)-2-hydroxymethyl-3,4-dihydroxyl-5-((10S)-10,13-(dihydroxyl)dec-1-yl) pyrrolidine]	> 100	0	> 100	50	> 100	0	2.3	> 100	> 100	9.6	> 100	0	0.29	2.1	1.9	> 100	–	44.3
OCCC[C@H](O)CCCCCCCCC[C@@H]1N[C@@H](CO)[C@@H](O)[C@H]1O [ent-3-epi-3, (2S,3R,4S,5S)-2-hydroxymethyl-3,4-dihydroxyl-5-((10S)-10,13-(dihydroxyl)dec-1-yl) pyrrolidine]	50	–	> 100	41	> 100	0	0	> 100	> 100	4.6	> 100	0	42	0	0	> 100	–	28.7
OCCC[C@@H](O)CCCCCCCCC[C@@H]1N[C@@H](CO)[C@H](O)[C@H]1O [ent-10’-epi-3]	> 100	6.1	> 100	9	> 100	2.0	14.9	> 100	> 100	8.0	> 100	6.1	–	0	1.9	> 100	–	36.2
